Here are results for eleven compounds from paper PMC4949533, “Optimization of Inhibitors of Mycobacterium tuberculosis Pantothenate Synthetase Based on Group Efficiency Analysis” (Chemmedchem, 2015).

The target in experiment [1] is T1, Mycobacterium tuberculosis pantothenate synthetase (Mycobacterium tuberculosis, UniProt P9WIL4).
T1 construct: gene panC
As to the kind of experiment: isothermal titration calorimetry (ITC). The following applies: read-out: K D [μM]^[a]. In kind it is binding. An excerpt: isothermal titration calorimetry (ITC) on Mycobacterium tuberculosis pantothenate synthetase
On the technique in general: Isothermal titration calorimetry measures the heat released or taken up as one component is titrated into another.

Experiment [2] addresses T1, Mycobacterium tuberculosis pantothenate synthetase. Description: enzyme inhibition assay. Type of experiment: biochemical.

Read-outs that look alike come from different tables or passages of the source.

T1 sequence (P9WIL4 2-309 limits assumed): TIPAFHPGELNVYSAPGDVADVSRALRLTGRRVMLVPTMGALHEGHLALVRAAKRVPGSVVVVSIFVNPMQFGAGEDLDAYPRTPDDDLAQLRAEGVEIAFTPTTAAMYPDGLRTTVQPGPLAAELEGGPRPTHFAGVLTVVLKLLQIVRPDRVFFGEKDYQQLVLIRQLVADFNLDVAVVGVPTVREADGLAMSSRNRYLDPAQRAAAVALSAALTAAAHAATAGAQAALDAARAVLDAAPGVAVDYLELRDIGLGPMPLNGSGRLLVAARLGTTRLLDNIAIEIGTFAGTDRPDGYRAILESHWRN

With `COc1ccc2c(c1)cc(C(=O)NS(=O)(=O)c1ccc(C)cn1)n2CC(=O)O` [compound 5, 5], in experiment [1] (active site, lead compound of the group's earlier work, cited from earlier work), the Kd is 1.5 µM.
`COc1ccc2c(c1)cc(C(=O)NS(=O)(=O)c1ccc(C)cc1)n2CC(=O)O` [compound 10, 10]: the Kd in experiment [1] turned out to be 0.34 µM.
Regarding `COc1ccc2c(c1)cc(C(=O)NS(=O)(=O)c1ccc(C(F)(F)F)cc1)n2CC(=O)O` [compound 11, 11], the half-maximal inhibitory concentration (IC50) (as a rule, the concentration that gives 50% inhibition) in experiment [2] was 5700 nM. Further, the Kd in experiment [1] is 0.2 µM.
`COc1ccc2c(c1)cc(C(=O)NS(=O)(=O)c1ccc(C(C)(C)C)cc1)n2CC(=O)O` [compound 12, 12]: in experiment [1], the Kd stood at 0.46 µM.
Same read-out and setting: with `COc1ccc2c(c1)cc(C(=O)NS(=O)(=O)c1ccc3ccccc3c1)n2CC(=O)O` [compound 13, 13] the figure was 0.61 µM.
For the compound `COc1ccc2c(c1)cc(C(=O)NS(=O)(=O)c1ccc(C(F)(F)F)cc1[N+](=O)[O-])n2CC(=O)O` [compound 14, 14], the Kd in experiment [1] is 0.8 µM.
Still for that read-out and setting: to `COc1ccc2c(c1)cc(C(=O)NS(=O)(=O)N1CCOCC1)n2CC(=O)O` [compound 15, 15] belongs 3.5 µM.
Same read-out and setting: with `COc1ccc2c(c1)cc(C(=O)NS(=O)(=O)N1CCN(C(C)=O)CC1)n2CC(=O)O` [compound 16, 16] the figure was 17 µM; with `COc1ccc2c(c1)cc(C(=O)NS(=O)(=O)c1ccc(NC(C)=O)cc1)n2CC(=O)O` [compound 18, 18], 6 µM.
Consider `COc1ccc(S(=O)(=O)NC(=O)c2cc3cc(OC)ccc3n2CC(=O)O)cc1` [compound 19, 19], for which the Kd in experiment [1] was 2 µM.
As to `COc1ccc2c(c1)cc(C(=O)NS(=O)(=O)Cc1ccc(C(F)(F)F)cc1)n2CC(=O)O` [compound 20, 20], the midpoint of inhibition in experiment [2], the IC50, lay at 253 nM. That is a sub-micromolar value.
